{"source": "patent US20190160035A1", "about": "“METHOD OF TREATMENT” (QBIOTICS LIMITED, priority 2016, published 2019)", "key": {"[1]": {"tested_on": "MCT (cutaneous and subcutaneous)", "test": "Example 5: Compound 1 injection with oral prednisolone and antihistamine co-therapy, RECIST v.1.1 tumor response", "assay_type": "in vivo, Canis lupus familiaris (dog)", "conditions": "1 mg/kg/day, 24 h pre-treatment and 7 days post-treatment", "source_text": "This study investigates the efficacy and safety of Compound 1 injection for MCT treatment in the presence of corticosteroids administered under defined clinical situations.\nDogs were selected for the study if they met the criteria in Table 1 (Example 1) but where the dog has at least one MCT.\nWherever possible, the tumor and a 2 cm border surrounding the tumor was shaved prior to treatment. To deliver the drug, the needle of the dosing syringe was inserted into the tumor at the injection point and moved in a radial manner in 2- and 3-dimensions with drug delivered to the tumor mass. Study dogs were clinically examined at 2-4 and 24 hours, and 7 (+2), 14 (+2) and 28 (+2) days post-treatment (and unscheduled visits at attending veterinarian discretion).\n(§1) Each supervising veterinarian was given latitude to provide and record prophylactic and supportive medications as deemed appropriate for managing potential paraneoplastic events and tumor site necrosis following Compound 1 treatment. However, prednisolone and antihistamines were used as co-therapy. Prednisolone therapy commenced on Day −1 and continued for a further 7 days. H1 and H2 antihistamine therapy (chlorpheniramine and famotidine respectively) commenced on the morning of drug treatment and continued for a further 6 days (see Table 23).\n(§2) RECIST v.1.1 results are summarised in Table 28 which also includes a measure of neoadjuvant prednisolone action (potential tumor shrinkage) between screening and immediate pre-treatment tumor evaluation. Sixteen (16) dogs and eighteen (18) tumors were treated. Raw data for RECIST assessment was collected on Day 0 (immediately pre-treatment) and on Day 28 for fifteen (15) cases. […] With the remaining three (3) cases (C05-T-18, C05-V-01, and C05-V-02), the dogs were not available on Day 28 for RECIST assessment. For dog C05-T-18, the injection site was measured as CR on Days 21 and 37. […] For dog C05-V-01, the injection site was measured as PR on Days 21 and 37 (55% and 60% RECIST reduction respectively). […] For dog […], due to the progressive nature of disease, the animal was removed from study on Day 21."}, "MCT": {"tested_on": "MCT", "test": "Example 5: neoadjuvant prednisolone action (tumor change between screening and immediate pre-treatment evaluation)", "assay_type": "in vivo, Canis lupus familiaris (dog)", "source_text": "as §1, §2"}, "[2]": {"conditions": "following 24 h neoadjuvant prednisolone, dog C05-T-17"}, "[3]": {"conditions": "per case (one dog tumor per line), negative = increase"}}, "note": "Several values for one entry are separate records, joined by “and”; a condition that tells them apart may be missing. Equal values may be shown once.", "data": [{"smiles": "C[C@]12C=CC(=O)C=C1CC[C@@H]1[C@@H]2[C@@H](O)C[C@@]2(C)[C@H]1CC[C@]2(O)C(=O)CO", "note": "[prednisolone]", "values": [{"measurement": "Effect of oral prednisolone on drug (Compound 1) action", "setting": "[1]", "result": "limited or no suppressive effects"}, {"measurement": "RECIST reduction following 24 h prednisolone administration, Mean", "setting": "MCT; Mean of cases", "result": 5, "unit": "%"}, {"measurement": "Tumor vol (cm^3) reduction following 24 h prednisolone administration, Mean", "setting": "MCT; Mean of cases", "result": 27, "unit": "%"}, {"measurement": "RECIST reduction following 24 h prednisolone administration, Median", "setting": "MCT; Median of cases", "result": 6, "unit": "%"}, {"measurement": "Tumor vol (cm^3) reduction following 24 h prednisolone administration, Median", "setting": "MCT; Median of cases", "result": 31, "unit": "%"}, {"measurement": "Decrease in RECIST measure from screening to pre-treatment evaluation", "setting": "MCT; [2]", "result": 6, "unit": "%"}, {"measurement": "Decrease in tumor volume from screening to pre-treatment evaluation", "setting": "MCT; [2]", "result": 31, "unit": "%"}, {"measurement": "Tumor response following 24 h prednisolone administration (screening to immediate pre-treatment): RECIST reduction", "setting": "MCT; [3]", "result": "−5% and 8% and −23% and 39% and −12% and 0% and 16% and −8% and 28% and 12% and 20% and 6% and 34% and −26% and −20%"}, {"measurement": "Tumor response following 24 h prednisolone administration (screening to immediate pre-treatment): Tumor vol (cm^3) reduction", "setting": "MCT; [3]", "result": "23% and 62% and −36% and 71% and 61% and 13% and 59% and 35% and 45% and 27% and 31% and 76% and −118% and 14%"}]}]}
